Assay results from US9132171B2, “Test of insulin as a drug to reduce restenosis of vessels” (WISCONSIN ALUMNI RESEARCH FOUNDATION, priority 2012, dated 2015).

B1: Connective Tissue Growth Factor (protein, UniProt P29279 27-349, looked up)
CCN family member 2: QNCSGPCRCPDEPAPRCPAGVSLVLDGCGCCRVCAKQLGELCTERDPCDPHKGLFCHFGSPANRKIGVCTAKDGAPCIFGGTVYRSGESFQSSCKYQCTCLDGAVGCMPLCSMDVRLPSPDCPFPRRVKLPGKCCEEWVCDEPKDQTVVGPALAAYRLEDTFGPDPTMIRANCLVQTTEWSACSKTCGMGISTRVTNDNASCRLEKQSRLCMVRPCEADLEENIKKGKKCIRTPKISKPIKFELSGCTSMKTYRAKFCGVCTDGRCCTPHRTTTLPVEFKCPDGEVMKKNMMFIKTCACHYNCPGDNDIFESLYYRKMYGDMA
notes: soluble factor secreted by blood vessel adventitial cells

How the values were obtained:
rat aortic fibroblasts = experiment: Collagen III and I in culture medium of treated rat aortic fibroblasts (direct ELISA, Western blot); type: cell-based; conditions: CTGF, insulin (1 ug) or both, 72 hours
Description: Collagen produced by rat fibroblasts was measured using Western blotting. […] GFP (control) and Smad3-transfected SMCs were starved for 24 hours in 0.5% serum DMEM medium and then treated with TGFbetal (5 ng/ml) for 48 hours. […] Thirty micrograms of proteins from each sample were separated on 10% SDS-PAGE gels. Protein samples were transferred to a polyvinylidene fluoride (PVDF) membrane. Rabbit anti-collagen type III (1:1000) and I (1:1000) (Fitzgerald) and goat-anti Rabbit (1:5000) were used as primary and secondary antibodies respectively to confirm immunoblotting. Conditioned medium was blotted parallel to unconditioned culture medium to rule out the possibility of presence of collagen in the former. Immunoblotting was carried out to visualize collagen I and III in culture medium after treating rat fibroblasts with CTGF (0.1 μg/ml) and IGF-2 (0.3 μg/ml) for 72 hours. These experiments were replicated using insulin in place of IGF-2. ELISA was used to detect the presence of IGF-2 and CTGF in the conditioned medium using the primary antibodies from Abcam® according to manufacturer's instructions. Fitzgerald Collagen I and III primary antibodies were used to visualize changes in collagen production in the fibroblast culture medium following treatment with CTGF and IGF small interfering RNA-(siRNA) transfected conditioned medium for 72 hours. […]

[1] = system: Smad3-expressing smooth muscle cells (SMCs); experiment: MTT cell proliferation assay; type: cell-based, rat; conditions: insulin 1 μg/ml, TGF-beta 5 ng/ml, 96 hours
Description: FIG. 7 illustrates a MTT proliferation assay of Smad3-expressing smooth muscle cells (SMCs) at 96 hours after treatment with TGF-beta (5 ng/ml) or TGF beta (5 ng/ml)+Insulin (1 μg/ml).
MTT cell proliferation assay was performed to visualize the effect of insulin on SMC proliferation. Smad3-transfected rat SMCs were stimulated with TGF-beta. Cells were then treated with 1 μg of insulin and the MTT assay was performed following 96 hours of treatment.
To determine whether insulin is sufficient for decreasing TGF-beta and Smad3-stimulated SMC proliferation, an MTT proliferation assay was carried out. Insulin abolished the TGF-beta-stimulated proliferation of Smad3-expressing SMCs (FIG. 7).

[2] = system: left carotid artery balloon angioplasty; experiment: Balloon injury model with morphometric analysis; type: in vivo, rat; conditions: periadventitial in Pluronic gel, 14 days after injury, relative to non-treated vessels
Description: In vivo studies conformed to the Guide for the Care and Use of Laboratory Animals published by the US National Institute of Health. Approval from the Institutional Animal Care and Use Committee was granted. Male Sprague-Dawley rats underwent angioplasty of the left common carotid artery. Periadventitial Insulin (1 microgram) along with CTGF (100 nanogram) suspended in 200 μL of Pluronic® gel was applied to the adventitial surface of the artery immediately after injury. Control animals were subjected to application of Pluronic® gel only. Fourteen days after injury, carotid was harvested utilizing perfusion fixation at physiological pressure of 100 mmHg.
Paraffin-embedded arteries were cut into 5 μm sections for analysis. Morphometric analysis was carried out on arteries stained with Haematoxilin and Eosin. For each animal, 10 sections were selected for analysis using digital software for Dell PC Computers (ImageJ and Photoshop V.7). The areas encompassed by the lumen surface (luminal area), […], internal elastic lamina-lumen surface (neointimal area), EEL-internal elastic lamina (medial area) and EEL length were measured. For evaluation of remodeling index, the EEL was measured and compared with that of controls. […]

vessels = conditions: in vivo; cited from earlier work
IGF-2BP3 = experiment: mRNA expression array analysis of TGFbeta/Smad3-treated SMCs; type: cell-based, mouse; conditions: data not shown
Excerpt: Cell Culture. Aortic SMCs were isolated from mouse (MOVAS) aortas. Rat aortic fibroblasts were isolated as previously described by Pagano et al., Localization of a constitutively active, phagocyte-like NADPH oxidase in rabbit aortic adventitia: enhancement by angiotensin II, Proc. Natl. Acad. Sci. USA. December 23; 94(26):14483-8 (1997), incorporated herein by reference as if set forth in its entirety, and used to visualize collagen secretion into growth media. These cells were transfected with green fluorescent protein (GFP) and SMAD3 adenoviral vectors expressing Smad3 (AdSmad3) and GFP (AdGFP), constructed as previously described in Ryer, E. et al., Arterioscler Thromb Vasc Biol. 26:780-786, 2006, incorporated herein by reference as if set forth in its entirety. Adenoviral vector expressing GFP was used as a control (AdGFP).
CTGF and IGF-2 are present in the CM derived from SMCs that overexpress Smad3 (FIGS. 2A and B respectively).

balloon-injured vessel = experiment: Collagen I/III immunostaining of balloon-injured artery after perivascular CTGF; type: in vivo, rat; conditions: CTGF 80 ng in 200 microliters Pluronic gel, 14 days after carotid artery injury
Excerpt: FIG. 5 illustrates collagen subtype induction by CTGF in vivo. Arteries were injured and treated with recombinant CTGF as described in FIG. 2. Arterial sections, harvested at 14 days post-injury, were subsequently immunostained for either Type I (COLI) or Type III collagen (COLIII). (A) Representative tissue sections from solvent-(CTRL) or CTGF-treated arteries (CTGF). Negative controls were established by staining sections without primary antibodies to collagen. 100X (B) Semi-quantification of adventitial COLI or COLIII was carried out, and the effects of CTGF on COLI or COLIII were expressed as fold induction; n=6, *p<0.05 as compared to COLIII. […] FIG. 5B depicts CTGF-mediated differential production of collagens III and I when CTGF was applied around a balloon-injured vessel.

[3] = system: balloon-injured blood vessels; conditions: CTGF applied to balloon-injured vessels; cited from earlier work

Row | Molecule | Collagen III production in rat aortic fibroblasts (rat aortic fibroblasts) | TGF-beta-stimulated proliferation of Smad3-expressing SMCs [1] | Increase in lumen size [2] [%] | Neo-intimal growth [2] | Cell migration into the intima (vessels) | Intima cell proliferation or apoptosis (vessels) | Re-endothelialization in vessels (vessels) | IGF-2BP3 increase (IGF-2BP3; 6 hours treatment) [folds] | IGF-2BP3 increase (IGF-2BP3; 48 hours treatment) [folds] | Adventitial collagen III versus collagen I (balloon-injured vessel) | Lumen remodeling [3]
1 | insulin | some increase in collagen III | abolished | 29.24 | decreased neo-intimal growth | inhibit cell migration into the intima | does not decrease | increase re-endothelialization | – | – | – | –
2 | TGFbeta: TGF-beta (5 ng/ml) used to treat Smad3-transfected SMCs | – | – | – | – | – | – | – | 2.8 | 2.4 | – | –
3 | B1 | some increase in collagen III | – | – | – | – | – | – | – | – | collagen III increased significantly more as compared to collagen I | expansively remodeled
